These results are taken from patent US20070004791A1, “3,6-disubstituted azabicyclo {3.1.0} hexane derivatives useful as muscarnic receptor antagonists” (priority 2002, published 2007).

Where a name gives a salt, the structure may show the parent alone. Bounds are passed on as bounds.

Assay [1] addresses T1, M2 muscarinic receptor (Rattus norvegicus, UniProt P10980).
T1 construct: Submandibular glands and heart were isolated and placed in ice cold homogenising buffer; from tissue; host or cells: rat heart membrane homogenate
T1 sequence (P10980 1-466): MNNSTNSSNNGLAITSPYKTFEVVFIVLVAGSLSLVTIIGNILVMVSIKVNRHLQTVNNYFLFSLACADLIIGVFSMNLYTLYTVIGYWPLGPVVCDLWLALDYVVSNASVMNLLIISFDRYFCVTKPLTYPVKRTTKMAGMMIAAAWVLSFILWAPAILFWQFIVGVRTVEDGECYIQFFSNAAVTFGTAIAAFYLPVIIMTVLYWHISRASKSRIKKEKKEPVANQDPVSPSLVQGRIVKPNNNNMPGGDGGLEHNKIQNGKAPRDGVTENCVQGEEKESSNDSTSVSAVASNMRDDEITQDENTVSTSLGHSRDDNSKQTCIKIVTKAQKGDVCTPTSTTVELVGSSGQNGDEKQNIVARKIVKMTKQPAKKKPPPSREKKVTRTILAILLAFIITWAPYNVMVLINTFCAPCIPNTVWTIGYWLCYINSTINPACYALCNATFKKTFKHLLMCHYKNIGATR
Kind of assay: biochemical. The class given is binding. As to conditions: for Ki: Receptor Binding Assay M2 pKi.

Assay [2] has as its target T2, M3 muscarinic receptor (Rattus norvegicus, UniProt P08483). Kind of assay: biochemical. As to conditions: Receptor Binding Assay M3 pKi.
The target of assay [3] is T2, M3 muscarinic receptor.

T2 sequence (P08483 whole entry): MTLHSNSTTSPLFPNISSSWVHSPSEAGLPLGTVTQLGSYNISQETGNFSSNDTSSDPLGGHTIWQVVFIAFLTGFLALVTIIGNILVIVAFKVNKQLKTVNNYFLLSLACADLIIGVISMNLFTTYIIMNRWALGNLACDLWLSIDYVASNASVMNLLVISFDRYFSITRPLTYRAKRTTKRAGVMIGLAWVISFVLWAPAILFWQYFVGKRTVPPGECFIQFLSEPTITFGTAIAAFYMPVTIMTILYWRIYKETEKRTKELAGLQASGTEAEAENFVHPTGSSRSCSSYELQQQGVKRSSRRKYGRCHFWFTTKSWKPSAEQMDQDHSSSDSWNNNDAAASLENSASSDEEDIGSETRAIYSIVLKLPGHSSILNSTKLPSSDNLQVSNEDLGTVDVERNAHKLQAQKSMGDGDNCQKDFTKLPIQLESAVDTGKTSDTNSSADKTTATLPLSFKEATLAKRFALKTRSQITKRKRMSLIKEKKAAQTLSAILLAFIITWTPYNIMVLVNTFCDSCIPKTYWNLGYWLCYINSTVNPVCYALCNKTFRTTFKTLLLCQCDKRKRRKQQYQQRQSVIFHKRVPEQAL

The Ki is the equilibrium dissociation constant of an inhibitor or competing ligand from its target. Read a high Ki as weaker binding. On to `O=C(NC[C@@H]1[C@H]2CN(Cc3ccncc3)C[C@@H]12)C(O)(c1ccccc1)c1ccccc1` [Compound No. 50, (1α,5α,6α)-N-[3-(4-pyridylmethyl)-3-azabicyclo[3.1.0]hexyl-6-(aminomethyl)-yl]-2-hydroxy-2,2-diphenyl acetamide], for which the Ki is more than 1000 nM in assay [1] and 115 nM in assay [2].

Consider `O=C(NCC1C2CN(Cc3ccccc3)CC12)C(O)(c1ccccc1)C1CCCC1` (stereo not drawn) [Compound No. 61, (1α,5α,6α)-N-[3-benzyl-3-azabicyclo[3.1.0]-hexyl-6-(aminomethyl)-yl]-2-hydroxy-2-cyclopentyl-2-phenyl acetamide. L(−) malic acid salt], for which the Ki is 43.7 nM in assay [1] and 5.13 nM in assay [2].

Take `O=C(NC[C@@H]1[C@H]2CN(Cc3cccnc3)C[C@@H]12)C(O)(c1ccccc1)C1CCCCC1` (stereo partly drawn) [Compound No. 45, (1α,5α,6α)-N-[3-(3-pyridylmethyl)-3-azabicyclo[3.1.0]hexyl-6-(aminomethyl)-yl]-2-hydroxy-2-cyclohexyl-2-phenyl acetamide]: the inhibitory constant (Ki) was more than 1000 nM in assay [1] and 234 nM in assay [2].

For the molecule “(1α,5α,6α)-N-[3-(2-(3,4-methylenedioxyphenyl)ethyl)-3-azabicyclo[3.1.0]hexyl-6-(aminomethyl)-yl]-2-hydroxy-2-cyclohexyl-2-phenyl acetamide [Compound No. 14]”, the “Receptor Binding Assay M2 pKi” value in assay [1] was found to be 5.7. Moreover, in assay [3], the “Receptor Binding Assay M3 pKi” value worked out at 6.72 and the “Receptor Binding Assay Selectivity M2/M3” value amounted to 10.5.

Consider `O=C(NCC1C2CN(Cc3ccccc3)CC12)C(O)(c1ccccc1)C1CCCC1` (stereo not drawn) [Compound No. 60, (1α,5α,6α)-N-[3-benzyl-3-azabicyclo[3.1.0]-hexyl-6-(aminomethyl)-yl]-2-hydroxy-2-cyclopentyl-2-phenyl acetamide hydrochloride salt], for which the Ki in assay [1] was 49 nM; in assay [2], 5.25 nM.

For the molecule `O=C(NCC1C2CN(Cc3ccncc3)CC12)C(O)(c1ccccc1)C1CCCCC1` (stereo not drawn) [Compound No. 46, (1α,5α,6α)-N-[3-(4pyridylmethyl)-3-azabicyclo[3.1.0]hexyl-6-(aminomethyl)-yl]-2-hydroxy-2-cyclohexyl-2-phenylacetamide], the Ki in assay [1] was more than 1000 nM; in assay [2] it was 67.6 nM.

As to `O=C(NC[C@@H]1[C@H]2CN(Cc3ccccc3)C[C@@H]12)C(O)(c1ccccc1)C1CCCC1` (stereo partly drawn) [Compound No. 62, (1α,5α,6α)-N-[3-benzyl-3-azabicyclo[3.1.0]-hexyl-6-(aminomethyl)-yl]-2-hydroxy-2-cyclopentyl-2-phenyl acetamide. Maleate salt], the inhibition constant Ki in assay [1] was 52.5 nM; in assay [2], 6.76 nM.

“(1α,5α,6α)-N-[3-(2-(3,4-methylenedioxyphenyl)ethyl)-3-azabicyclo[3.1.0]hexyl-6-(aminomethyl)-yl]-2-hydroxy-2-cyclopentyl-2-phenyl acetamide [Compound No. 13]”: in assay [1], the “Receptor Binding Assay M2 pKi” value came to 6.48. In assay [3], the “Receptor Binding Assay M3 pKi” value was found to be 7.28 and the “Receptor Binding Assay Selectivity M2/M3” value came to 6.3.

As to `O=C(NC[C@@H]1[C@H]2CN(Cc3cccnc3)C[C@@H]12)C(O)(c1ccccc1)c1ccccc1` [Compound No. 49, (1α,5α,6α)-N-[3-(3-pyridylmethyl)-3-azabicyclo[3.1.0]hexyl-6-(aminomethyl)-yl]-2-hydroxy-2,2-diphenylacetamide], the Ki in assay [1] is more than 1000 nM; in assay [2], 69.2 nM.

As to `O=C(NC[C@@H]1[C@H]2CN(Cc3ccncc3)C[C@@H]12)C(O)(c1ccccc1)C1CCCC1` (stereo partly drawn) [Compound No. 48, (1α,5α,6α)-N-[3-(4-pyridylmethyl)-3-azabicyclo[3.1.0]hexyl-6-(aminomethyl)-yl]-2-hydroxy-2-cyclopentyl-2-phenylacetamide], the values for the inhibitory constant (Ki) in assay [1] and in assay [2] were more than 1000 nM and 72.4 nM, respectively.

As for “(1α,5α,6α)-N-[3-(2-pyridylmethyl)-3-azabicyclo[3.1.0]hexyl-6-(aminomethyl)-yl]-2-hydroxy-2-cyclopentyl-2-phenylacetamide [Compound No. 47]”, the “Receptor Binding Assay M2 pKi” value in assay [1] is recorded as 6.15. The “Receptor Binding Assay M3 pKi” value in assay [3] is given as 7.42.
